According to patent US9085584B2, “Substituted pyrido[3,2-E][1,2,4]-triazolo[4,3-A]pyrazines for the treatment of central nervous system disorders” (Boehringer Ingelheim International GmbH, priority 2012, dated 2015):

Assay: Metabolic stability in pooled liver microsomes
Format: in vitro ADME, human
Conditions: 1 μM test compound, 37° C.; for Half-life - t½: human liver microsomes; for half-life at 1 μM: human, pooled liver microsomes, pH 7.6, human liver microsomes, read-out: Half-life - t½
Procedure: The metabolic stability of the compounds according to the invention has been investigated as follows:
The metabolic degradation of the test compound was assayed at 37° C. with pooled liver microsomes from various species. The final incubation volume of 100 μl per time point contains TRIS buffer pH 7.6 at room temperature (0.1 M), magnesium chloride (5 mM), microsomal protein (1 mg/mL for human and dog, 0.5 mg/mL for other species) and the test compound at a final concentration of 1 μM. Following a short preincubation period at 37° C., the reactions were initiated by addition of betanicotinamide adenine dinucleotide phosphate, reduced form (NADPH, 1 mM), and terminated by transferring an aliquot into solvent after different time points. […] The half-life was determined by the slope of the semi-logarithmic plot of the concentration-time profile.

Compound | Half-life - t½ [min] | half-life at 1 μM [min]
Cc1nc2ccc(C(C)C)nc2n2c(-c3cc(OCC(C)(C)O)ccc3F)nnc12 [Example 52] | 130 | –
Cc1nc2ccc(C3CC3)nc2n2c(-c3cc(C4(O)CCOCC4)ccc3Cl)nnc12 [Example 94] | – | 38
Cc1nc2ccc(C3CC3)nc2n2c(-c3cc(OC4COCC4O)ccc3Cl)nnc12 (single isomer, unassigned) [Example 58c] | 130 | –
Cc1nc2ccc(C3CC3)nc2n2c(-c3cc(C4(O)CCC4)ccc3Cl)nnc12 [Example 88] | – | 53
Cc1ccc(OC2COCC2O)cc1-c1nnc2c(C)nc3ccc(C4CC4)nc3n12 (racemic) [Example 57] | 130 | –
Cc1nc2cccnc2n2c(-c3cc(CCC(C)(C)O)ccc3Cl)nnc12 [Example 64] | 130 | –
Cc1ccc(C2(O)CCOCC2O)cc1-c1nnc2c(C)nc3ccc(C4CC4)nc3n12 (single isomer, unassigned) [Example 104a] | 130 | –
Cc1nc2cccnc2n2c(-c3cc(OC[C@H](C)O)ccc3Cl)nnc12 [Example 18] | 130 | –
Cc1ccc2nc(C)c3nnc(-c4cc(C(C)(C)O)ccc4Cl)n3c2n1 [Example 71] | 130 | –
Cc1nc2ccc(C3CC3)nc2n2c(-c3cc(OC4COCC4O)ccc3Cl)nnc12 (single isomer, unassigned) [Example 56a] | – | 110
Cc1ccc(OCC(C)(C)O)cc1-c1nnc2c(C)nc3ccc(C(C)C)nc3n12 [Example 51] | 130 | –
Cc1nc2ccc(C3(C)CC3)nc2n2c(-c3cc(C(C)(C)O)ccc3F)nnc12 [Example 72] | 130 | –
Cc1nc2cccnc2n2c(-c3cc(OCCCO)ccc3Cl)nnc12 [Example 13] | 130 | –
Cc1nc2cccnc2n2c(-c3cc(C4(O)CCOCC4)ccc3Cl)nnc12 [Example 93] | 130 | –
Cc1nc2cccnc2n2c(-c3cc(C4(O)CCOC4)ccc3Cl)nnc12 (single isomer, unassigned) [Example 99] | 130 | –
Cc1nc2ccc(C(C)C)nc2n2c(-c3cc(C(C)(C)O)ccc3Cl)nnc12 [Example 77] | – | 90
Cc1nc2ccc(C3CC3)nc2n2c(-c3cc(CCC(C)(C)O)ccc3F)nnc12 [Example 66] | – | 57
Cc1nc2ccc(C(C)C)nc2n2c(-c3cc(C4(O)CCC4)ccc3F)nnc12 [Example 92] | – | 23
Cc1nc2cccnc2n2c(-c3cc(C(C)(C)O)ccc3Cl)nnc12 [Example 70] | 130 | –
Cc1nc2ccc(C3CC3)nc2n2c(-c3cc(OCC(C)(C)O)ccc3F)nnc12 [Example 47] | 130 | –
Cc1nc2ccc(C(F)(F)F)nc2n2c(-c3cc(O)ccc3Cl)nnc12 [Example 12] | – | 63
Cc1nc2cccnc2n2c(-c3cc(OC4COCCC4O)ccc3Cl)nnc12 (single isomer, unassigned) [Example 58] | 130 | –

Compound | Half-life - t½ [min] | half-life at 1 μM [min]
Cc1ccc2nc(C)c3nnc(-c4cc(OCC(C)(C)O)ccc4Cl)n3c2n1 [Example 46] | 130 | –
Cc1nc2ccc(C3CC3)nc2n2c(-c3cc(OC4COCC4O)ccc3Cl)nnc12 (racemic) [Example 56] | – | 120
Cc1ccc(OCC2(O)CCC2)cc1-c1nnc2c(C)nc3cccnc3n12 [Example 50] | 130 | –
CCCC(O)c1ccc(Cl)c(-c2nnc3c(C)nc4ccc(C)nc4n23)c1 (stereo not drawn) [Example 61] | – | 65
Cc1nc2ccc(C3CC3)nc2n2c(-c3cc(C(C)(C)O)ccc3F)nnc12 [Example 76] | 130 | –
Cc1nc2cccnc2n2c(-c3cc(OC[C@@H](C)O)ccc3Cl)nnc12 [Example 17] | 130 | –
Cc1ccc(C(C)(C)O)cc1-c1nnc2c(C)nc3ccc(C(C)C)nc3n12 [Example 78] | – | 79
Cc1nc2ccc(C3CC3)nc2n2c(-c3cc(C4(O)CCC4)ccc3F)nnc12 [Example 84] | – | 39
Cc1nc2cccnc2n2c(-c3cc(CC(C)(C)O)ccc3Cl)nnc12 [Example 82] | 130 | –
Cc1ccc(CC(C)(C)O)cc1-c1nnc2c(C)nc3ccc(C4CC4)nc3n12 [Example 81] | – | 26
Cc1nc2cccnc2n2c(-c3cc(OCC4(O)CCC4)ccc3Cl)nnc12 [Example 49] | 130 | –
Cc1nc2ccc(C3CC3)nc2n2c(-c3cc(OCC(C)(C)O)ccc3Cl)nnc12 [Example 45] | 130 | –
Cc1nc2ccc(C3CC3)nc2n2c(-c3cc(CC(C)(C)O)ccc3Cl)nnc12 [Example 83] | – | 100
CCC(O)c1ccc(Cl)c(-c2nnc3c(C)nc4ccc(C)nc4n23)c1 (stereo not drawn) [Example 62] | 130 | –
Cc1ccc(OCC(C)(C)O)cc1-c1nnc2c(C)nc3ccc(C4CC4)nc3n12 [Example 48] | 130 | –
Cc1nc2cccnc2n2c(-c3cc(OC4COCC4O)ccc3Cl)nnc12 (single isomer, unassigned) [Example 55a] | 130 | –
Cc1ccc2nc(C)c3nnc(-c4cc(O[C@H]5CCOC5)ccc4Cl)n3c2n1 [Example 43] | 130 | –
Cc1ccc2nc(C)c3nnc(-c4cc(OC[C@@H](C)O)ccc4Cl)n3c2n1 [Example 35] | 130 | –
Cc1nc2ccc(C3CC3)nc2n2c(-c3cc(OC4COCC4O)ccc3Cl)nnc12 (single isomer, unassigned) [Example 56b] | 62 | –
Cc1ccc2nc(C)c3nnc(-c4cc(OC5CCOCC5)ccc4Cl)n3c2n1 [Example 32] | 130 | –
Cc1nc2cccnc2n2c(-c3cc(OC4CCC(F)(F)CC4)ccc3Cl)nnc12 [Example 21] | 130 | –
Cc1nc2ccc(C3CC3)nc2n2c(-c3cc(O)ccc3Cl)nnc12 [Example 9] | – | 41

Compound | Half-life - t½ [min] | half-life at 1 μM [min]
Cc1nc2ccc(C3CC3)nc2n2c(-c3cc(CCC(C)(C)O)ccc3Cl)nnc12 [Example 69] | – | 53
Cc1nc2ccc(C3CC3)nc2n2c(-c3cc(OC4COCC4O)ccc3Cl)nnc12 (single isomer, unassigned) [Example 58b] | 130 | –
Cc1nc2ccc(C3CC3)nc2n2c(-c3cc(C(C)(C)O)ccc3Cl)nnc12 [Example 85] | 130 | –
Cc1ccc(C2(O)CCOCC2O)cc1-c1nnc2c(C)nc3ccc(C4CC4)nc3n12 (racemic) [Example 104] | 130 | –
Cc1nc2cccnc2n2c(-c3cc(OC4CCOCC4)ccc3Cl)nnc12 [Example 20] | 130 | –
Cc1nc2cccnc2n2c(-c3cc(O)ccc3Cl)nnc12 [Example 1] | 130 | –
Cc1ccc2nc(C)c3nnc(-c4cc(C(C)O)ccc4Cl)n3c2n1 (stereo not drawn) [Example 63] | 130 | –
Cc1ccc(OC2COCC2O)cc1-c1nnc2c(C)nc3ccc(C4CC4)nc3n12 (single isomer, unassigned) [Example 57b] | – | 93
Cc1nc2cc(C(C)C)cnc2n2c(-c3cc(OCC(C)(C)O)ccc3Cl)nnc12 [Example 54] | 130 | –
Cc1nc2ccc(C(C)C)nc2n2c(-c3cc(C4(O)CCC4)ccc3Cl)nnc12 [Example 91] | – | 28
Cc1ccc2nc(C)c3nnc(-c4cc(OC[C@H](C)O)ccc4Cl)n3c2n1 [Example 34] | 130 | –
Cc1nc2ccc(C3CC3)nc2n2c(-c3cc(CC(C)(C)O)ccc3F)nnc12 [Example 80] | – | 83
Cc1ccc2nc(C)c3nnc(-c4cc(C(O)C(C)C)ccc4Cl)n3c2n1 (stereo not drawn) [Example 59] | 49 | –
Cc1ccc(O)cc1-c1nnc2c(C)nc3ccc(C4CC4)nc3n12 [Example 6] | – | 66
Cc1nc2ccc(C3CC3)nc2n2c(-c3cc(OC4CCOCC4)ccc3Cl)nnc12 [Example 32a] | – | 36
Cc1ccc(OC2COCC2O)cc1-c1nnc2c(C)nc3ccc(C4CC4)nc3n12 (single isomer, unassigned) [Example 57a] | 130 | –
Cc1ccc2nc(C)c3nnc(-c4cc(O[C@@H]5CCOC5)ccc4Cl)n3c2n1 [Example 42] | 130 | –
Cc1nc2cccnc2n2c(-c3cc(C4(O)CCC4)ccc3Cl)nnc12 [Example 87] | 130 | –
Cc1nc2cccnc2n2c(-c3cc(OCC(C)(C)O)ccc3Cl)nnc12 [Example 44] | 130 | –
Cc1nc2ccc(C3CC3)nc2n2c(-c3cc(OC4COCC4O)ccc3Cl)nnc12 (racemic) [Example 58a] | 130 | –
Cc1nc2ccc(C3CC3)nc2n2c(-c3cc(C(C)(C)CO)ccc3F)nnc12 [Example 101] | – | 22
Cc1ccc2nc(C)c3nnc(-c4cc(OC5CCC(F)(F)CC5)ccc4Cl)n3c2n1 [Example 30] | 130 | –
